Laboratory results from patent publication US4539150A, “Benzothiazepine derivatives and their methods of preparation” (Mitsui Toatsu Chemicals, Inc., priority 1983, dated 1985).
Structures can show the parent of a compound that is named as a salt.

What was measured:
[1] = molecular target: T1, angiotensin converting enzyme (ACE) (Oryctolagus cuniculus, UniProt P12822); assay: in vitro evaluation of inhibitory effects on ACE activity (method of Cushman); format: biochemical; details: ACE isolated from rabbit lungs; for IC50: Table 1, in vitro
T1 construct: Using ACE isolated from rabbit lungs; from tissue; host or cells: rabbit lungs
T1 sequence (P12822 34-1310): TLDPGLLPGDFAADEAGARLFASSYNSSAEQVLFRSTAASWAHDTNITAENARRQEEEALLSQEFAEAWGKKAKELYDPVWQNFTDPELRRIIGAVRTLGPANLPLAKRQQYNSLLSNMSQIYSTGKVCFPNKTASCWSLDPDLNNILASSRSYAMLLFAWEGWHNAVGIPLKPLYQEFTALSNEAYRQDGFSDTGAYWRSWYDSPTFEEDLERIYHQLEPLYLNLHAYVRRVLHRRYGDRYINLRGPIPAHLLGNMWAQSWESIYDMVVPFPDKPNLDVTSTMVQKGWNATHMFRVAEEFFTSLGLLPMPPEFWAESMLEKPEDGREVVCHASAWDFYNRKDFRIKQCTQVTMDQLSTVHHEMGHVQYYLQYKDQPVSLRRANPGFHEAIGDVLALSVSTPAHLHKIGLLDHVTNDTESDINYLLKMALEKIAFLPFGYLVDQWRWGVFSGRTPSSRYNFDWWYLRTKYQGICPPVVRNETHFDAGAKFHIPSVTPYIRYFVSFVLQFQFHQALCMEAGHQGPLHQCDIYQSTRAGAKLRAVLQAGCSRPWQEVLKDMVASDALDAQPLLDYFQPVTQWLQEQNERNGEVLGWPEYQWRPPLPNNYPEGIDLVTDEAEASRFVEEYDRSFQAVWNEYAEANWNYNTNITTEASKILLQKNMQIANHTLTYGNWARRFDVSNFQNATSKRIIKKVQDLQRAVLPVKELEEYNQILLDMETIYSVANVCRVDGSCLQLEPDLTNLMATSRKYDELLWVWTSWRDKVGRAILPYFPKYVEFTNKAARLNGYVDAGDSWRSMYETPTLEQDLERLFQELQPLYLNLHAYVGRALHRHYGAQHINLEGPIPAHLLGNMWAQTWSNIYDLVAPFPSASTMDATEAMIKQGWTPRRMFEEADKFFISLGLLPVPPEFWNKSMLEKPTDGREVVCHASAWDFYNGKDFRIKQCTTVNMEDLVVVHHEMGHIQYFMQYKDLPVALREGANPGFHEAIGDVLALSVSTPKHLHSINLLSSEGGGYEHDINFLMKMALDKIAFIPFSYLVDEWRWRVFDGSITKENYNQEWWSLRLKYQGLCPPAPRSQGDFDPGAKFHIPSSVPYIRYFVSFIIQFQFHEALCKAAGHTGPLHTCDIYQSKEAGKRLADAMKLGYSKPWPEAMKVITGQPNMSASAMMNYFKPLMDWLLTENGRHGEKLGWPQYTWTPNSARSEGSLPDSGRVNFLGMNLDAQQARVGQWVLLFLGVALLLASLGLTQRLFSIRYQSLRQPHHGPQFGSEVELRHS
Method: The efficacy of the compounds of the present invention can be tested by evaluating their inhibitory effects on the angiotensin converting enzyme (ACE). Using ACE isolated from rabbit lungs, in vitro evaluation of inhibitory effects on ACE activity was carried out according to the method of Cushman [Biochem. Pharmacol., 20, 1637(1971)]. […] Some of the compounds obtained in the other examples were also tested by in vitro evaluation of inhibitory effects on ACE activity and the results thus obtained are summarized in Table 1.

[2] = system: spontaneously occurring hypertensive rats (SHR); assay: depressor effect after oral administration in spontaneously occurring hypertensive rats (SHR), systolic blood pressure of caudal artery; format: in vivo, rat; details: 50 mg/kg oral, unanesthetized male SHR
Method: The compounds of the present invention can also be tested by evaluating their depressor effects. Such evaluation was carried out by using spontaneously occurring hypertensive rats (SHR). Male rats, aged 20 weeks or more, were fasted for 17 hours. Then, under an unanesthetized condition, the systolic blood pressure of their caudal artery was nonsurgically measured before medication as well as 2,4,6 and 24 hours after medication. Test compounds were orally administered to groups of 3-5 rats showing a systolic blood pressure of 180 mmHg or above.
When the compound of Example 10 was orally administered in a dose of 50 mg/kg, the blood pressure was reduced by 26, 34 and 46 mmHg after the lapse of 2, 4 and 6 hours, respectively.

IC50 [1] [nM]	Structure (SMILES)	further results
	O=C(O)CN1C(=O)C(NC(CCc2ccccc2)C(=O)O)CSc2ccccc21 (stereo not drawn) [Example 8, 3-(1-carboxy-3-phenylpropylamino)-5-carboxymethyl-2,3-dihydro-1,5-benzothiazepin-4(5H)-one]	inhibition at 0.01 µM ([1]; 0.01 μM, read-out: inhibited ACE activity): 14.8%; inhibition at 0.1 µM ([1]; 0.1 μM, read-out: inhibited ACE activity): 77.8%
> 100000	CCOC(=O)CNC1CSc2ccccc2N(CC(=O)O)C1=O (stereo not drawn) [Example 15, 5-carboxymethyl-3-ethoxycarbonylmethylamino-2,3-dihydro-1,5-benzothiazepin-4(5H)-one hydrochloride]	
	CCOC(=O)C(CCc1ccccc1)NC1CSc2ccccc2N(CC(=O)O)C1=O.Cl (stereo not drawn) [Example 10, 5-carboxymethyl-3-(1-ethoxycarbonyl-3-phenylpropylamino)-2,3-dihydro-1,5-benzothiazepin-4(5H)-one hydrochloride]	depressor effect, persistence ([2]; 24 hours): found to persist even after 24 hours; blood pressure was reduced by ([2]; after 2 hours): 26 mmHg; blood pressure was reduced by ([2]; after 4 hours): 34 mmHg; blood pressure was reduced by ([2]; after 6 hours): 46 mmHg
160	CCCCCCCCC(NC1CSc2ccccc2N(CC(=O)O)C1=O)C(=O)OCC (stereo not drawn) [Example 18, 5-carboxymethyl-3-(1-ethoxycarbonylnonylamino)-2,3-dihydro-1,5-benzothiazepin-4(5H)-one]	
10	CCCCCCCCC(NC1CSc2ccccc2N(CC(=O)O)C1=O)C(=O)O (stereo not drawn) [Example 19, 5-carboxymethyl-3-(1-carboxynonylamino)-2,3-dihydro-1,5-benzothiazepin-4(5H)-one]	
7000	CCOC(=O)C(C)NC1CSc2ccccc2N(CC(=O)O)C1=O (stereo not drawn) [Example 12, 5-carboxymethyl-3-(1-ethoxycarbonylethylamino)-2,3-dihydro-1,5-benzothiazepin-4(5H)-one hydrochloride]	
8200	O=C(O)CNC1CSc2ccccc2N(CC(=O)O)C1=O (stereo not drawn) [Example 16, 5-carboxymethyl-3-carboxymethylamino-2,3-dihydro-1,5-benzothiazepin-4(5H)-one hydrochloride]	
470	CC(NC1CSc2ccccc2N(CC(=O)O)C1=O)C(=O)O (stereo not drawn) [Example 13, 5-carboxymethyl-3-(1-carboxyethylamino)-2,3-dihydro-1,5-benzothiazepin-4(5H)-one hydrochloride]	
